Measured values taken from the NIST ThermoML archive (doi:10.1016/j.jct.2004.11.020).
± gives the expanded uncertainty stated by the source.

How the values were obtained:
[1] = 308.15 K, 101.33 kPa, Liquid; for speed of sound: Pulse-echo method
[2] = xn = mol fraction of the nth substance listed; conditions: 308.15 K, 101 kPa, Liquid; for speed of sound: Pulse-echo method

## CCC(O)CO (configuration not stated) [1,2-butanediol]
[1]
  mass density: 988.25 ± 1 kg/m3
  viscosity: 30.29 ± 0.85 mPa·s
  speed of sound: 1422.6 ± 2.2 m/s

## CCC(O)CO (configuration not stated) [1,2-butanediol] + O=C1CCCN1
[2]; x2 = 0.027
  speed of sound: 1426.7 ± 2.2 m/s
  viscosity: 28.33 ± 0.79 mPa·s
[2]; x2 = 0.0512
  speed of sound: 1430.5 ± 2.2 m/s
  viscosity: 27.12 ± 0.75 mPa·s
[2]; x2 = 0.0797
  speed of sound: 1435.2 ± 2.2 m/s
  viscosity: 25.57 ± 0.7 mPa·s
[2]; x2 = 0.0977
  speed of sound: 1438.2 ± 2.2 m/s
  viscosity: 24.38 ± 0.66 mPa·s
[2]; x2 = 0.1464
  speed of sound: 1446.3 ± 2.1 m/s
  viscosity: 22.32 ± 0.6 mPa·s
[2]; x2 = 0.1937
  speed of sound: 1454.3 ± 2.1 m/s
  viscosity: 20.82 ± 0.56 mPa·s
[2]; x2 = 0.3017
  speed of sound: 1472.5 ± 2 m/s
  viscosity: 17.81 ± 0.47 mPa·s
[2]; x2 = 0.4061
  speed of sound: 1490.3 ± 1.9 m/s
  viscosity: 15.69 ± 0.41 mPa·s
[2]; x2 = 0.5017
  speed of sound: 1507.5 ± 1.9 m/s
  viscosity: 14.09 ± 0.37 mPa·s
[2]; x2 = 0.5983
  speed of sound: 1524.7 ± 1.8 m/s
  viscosity: 12.68 ± 0.33 mPa·s
[2]; x2 = 0.7038
  speed of sound: 1543.6 ± 1.7 m/s
  viscosity: 11.52 ± 0.3 mPa·s
[2]; x2 = 0.798
  speed of sound: 1561 ± 1.6 m/s
  viscosity: 10.78 ± 0.28 mPa·s
[2]; x2 = 0.8484
  speed of sound: 1570.6 ± 1.6 m/s
  viscosity: 10.26 ± 0.27 mPa·s
[2]; x2 = 0.9038
  speed of sound: 1580.6 ± 1.6 m/s
  viscosity: 9.435 ± 0.25 mPa·s
[2]; x2 = 0.9319
  speed of sound: 1586.6 ± 1.5 m/s
  viscosity: 9.291 ± 0.24 mPa·s
[2]; x2 = 0.9512
  speed of sound: 1590.1 ± 1.5 m/s
  viscosity: 9.015 ± 0.24 mPa·s
[2]; x2 = 0.9738
  speed of sound: 1594.7 ± 1.5 m/s
  viscosity: 8.969 ± 0.24 mPa·s
[2]; x2 = 0.0473
  excess molar volume: 1.3e-08 ± 9e-09 m3/mol
[2]; x2 = 0.0621
  excess molar volume: 1.8e-08 ± 9e-09 m3/mol
[2]; x2 = 0.0786
  excess molar volume: 2.4e-08 ± 9e-09 m3/mol
[2]; x2 = 0.0991
  excess molar volume: 2.8e-08 ± 9e-09 m3/mol
[2]; x2 = 0.113
  excess molar volume: 3.2e-08 ± 9e-09 m3/mol
[2]; x2 = 0.1263
  excess molar volume: 3.6e-08 ± 9e-09 m3/mol
[2]; x2 = 0.142
  excess molar volume: 4e-08 ± 9e-09 m3/mol
[2]; x2 = 0.162
  excess molar volume: 4.4e-08 ± 1e-08 m3/mol
[2]; x2 = 0.1973
  excess molar volume: 4.7e-08 ± 1e-08 m3/mol
[2]; x2 = 0.2456
  excess molar volume: 5e-08 ± 1e-08 m3/mol
[2]; x2 = 0.2794
  excess molar volume: 5.2e-08 ± 1e-08 m3/mol
[2]; x2 = 0.3213
  excess molar volume: 5.3e-08 ± 1e-08 m3/mol
[2]; x2 = 0.3797
  excess molar volume: 5.2e-08 ± 1e-08 m3/mol
[2]; x2 = 0.4034
  excess molar volume: 5.1e-08 ± 1e-08 m3/mol
[2]; x2 = 0.4544
  excess molar volume: 5e-08 ± 1e-08 m3/mol
[2]; x2 = 0.4753
  excess molar volume: 4.9e-08 ± 1e-08 m3/mol
[2]; x2 = 0.5014
  excess molar volume: 4.7e-08 ± 1e-08 m3/mol
[2]; x2 = 0.5226
  excess molar volume: 4.4e-08 ± 1e-08 m3/mol
[2]; x2 = 0.5643
  excess molar volume: 4.1e-08 ± 1e-08 m3/mol
[2]; x2 = 0.5966
  excess molar volume: 3.8e-08 ± 9e-09 m3/mol
[2]; x2 = 0.6244
  excess molar volume: 3.6e-08 ± 9e-09 m3/mol
[2]; x2 = 0.6571
  excess molar volume: 3.3e-08 ± 9e-09 m3/mol
[2]; x2 = 0.688
  excess molar volume: 2.9e-08 ± 9e-09 m3/mol
[2]; x2 = 0.71
  excess molar volume: 2.6e-08 ± 9e-09 m3/mol
[2]; x2 = 0.7348
  excess molar volume: 2.4e-08 ± 9e-09 m3/mol
[2]; x2 = 0.7619
  excess molar volume: 2e-08 ± 9e-09 m3/mol
[2]; x2 = 0.7843
  excess molar volume: 1.7e-08 ± 9e-09 m3/mol
[2]; x2 = 0.8061
  excess molar volume: 1.4e-08 ± 9e-09 m3/mol
[2]; x2 = 0.8374
  excess molar volume: 1.2e-08 ± 9e-09 m3/mol
[2]; x2 = 0.8607
  excess molar volume: 1.1e-08 ± 9e-09 m3/mol
[2]; x2 = 0.8753
  excess molar volume: 1e-08 ± 9e-09 m3/mol
[2]; x2 = 0.8878
  excess molar volume: 9e-09 ± 9e-09 m3/mol
[2]; x2 = 0.9039
  excess molar volume: 8e-09 ± 9e-09 m3/mol
[2]; x2 = 0.924
  excess molar volume: 7e-09 ± 9e-09 m3/mol
[2]; x2 = 0.9469
  excess molar volume: 6e-09 ± 9e-09 m3/mol
[2]; x2 = 0.9599
  excess molar volume: 5e-09 ± 9e-09 m3/mol
[2]; x2 = 0.9885
  excess molar volume: 3e-09 ± 9e-09 m3/mol
[2]; x2 = 0.9955
  excess molar volume: 2e-09 ± 9e-09 m3/mol

## CC(O)CCO (configuration not stated) [1,3-butanediol]
[1]
  mass density: 991.28 ± 0.53 kg/m3
  viscosity: 54.24 ± 1.2 mPa·s
  speed of sound: 1496 ± 1.5 m/s

## CC(O)CCO (configuration not stated) [1,3-butanediol] + O=C1CCCN1
[2]; x2 = 0.0261
  speed of sound: 1498 ± 1.5 m/s
  viscosity: 51.57 ± 1.1 mPa·s
[2]; x2 = 0.0526
  speed of sound: 1500.5 ± 1.5 m/s
  viscosity: 46.61 ± 1.3 mPa·s
[2]; x2 = 0.0755
  speed of sound: 1502.8 ± 1.5 m/s
  viscosity: 44.87 ± 1.3 mPa·s
[2]; x2 = 0.1
  speed of sound: 1504.8 ± 1.5 m/s
  viscosity: 40.88 ± 1.1 mPa·s
[2]; x2 = 0.1543
  speed of sound: 1509.2 ± 1.5 m/s
  viscosity: 36.15 ± 0.98 mPa·s
[2]; x2 = 0.2041
  speed of sound: 1513.2 ± 1.5 m/s
  viscosity: 31.48 ± 0.84 mPa·s
[2]; x2 = 0.3003
  speed of sound: 1521.1 ± 1.5 m/s
  viscosity: 26.19 ± 0.68 mPa·s
[2]; x2 = 0.3932
  speed of sound: 1529.1 ± 1.5 m/s
  viscosity: 21.54 ± 0.56 mPa·s
[2]; x2 = 0.4985
  speed of sound: 1539 ± 1.5 m/s
  viscosity: 17.82 ± 0.46 mPa·s
[2]; x2 = 0.603
  speed of sound: 1549 ± 1.5 m/s
  viscosity: 15.46 ± 0.39 mPa·s
[2]; x2 = 0.6985
  speed of sound: 1559.4 ± 1.5 m/s
  viscosity: 13.17 ± 0.34 mPa·s
[2]; x2 = 0.7935
  speed of sound: 1570.9 ± 1.5 m/s
  viscosity: 11.85 ± 0.3 mPa·s
[2]; x2 = 0.839
  speed of sound: 1576.8 ± 1.5 m/s
  viscosity: 10.81 ± 0.28 mPa·s
[2]; x2 = 0.8994
  speed of sound: 1585.1 ± 1.5 m/s
  viscosity: 9.984 ± 0.26 mPa·s
[2]; x2 = 0.9271
  speed of sound: 1589 ± 1.5 m/s
  viscosity: 9.739 ± 0.25 mPa·s
[2]; x2 = 0.947
  speed of sound: 1592.3 ± 1.5 m/s
  viscosity: 9.44 ± 0.25 mPa·s
[2]; x2 = 0.9774
  speed of sound: 1596.3 ± 1.5 m/s
  viscosity: 9.15 ± 0.24 mPa·s
[2]; x2 = 0.0122
  excess molar volume: 2e-09 ± 9e-09 m3/mol
[2]; x2 = 0.0368
  excess molar volume: 8e-09 ± 9e-09 m3/mol
[2]; x2 = 0.055
  excess molar volume: 2.3e-08 ± 9e-09 m3/mol
[2]; x2 = 0.0812
  excess molar volume: 3.4e-08 ± 9e-09 m3/mol
[2]; x2 = 0.0939
  excess molar volume: 4.6e-08 ± 1e-08 m3/mol
[2]; x2 = 0.1079
  excess molar volume: 5.5e-08 ± 1e-08 m3/mol
[2]; x2 = 0.1227
  excess molar volume: 5.9e-08 ± 1e-08 m3/mol
[2]; x2 = 0.1447
  excess molar volume: 6.3e-08 ± 1e-08 m3/mol
[2]; x2 = 0.1594
  excess molar volume: 6.7e-08 ± 1e-08 m3/mol
[2]; x2 = 0.1843
  excess molar volume: 8.2e-08 ± 1e-08 m3/mol
[2]; x2 = 0.2174
  excess molar volume: 9.5e-08 ± 1e-08 m3/mol
[2]; x2 = 0.2396
  excess molar volume: 1.02e-07 ± 1e-08 m3/mol
[2]; x2 = 0.2586
  excess molar volume: 1.16e-07 ± 1e-08 m3/mol
[2]; x2 = 0.2859
  excess molar volume: 1.25e-07 ± 1e-08 m3/mol
[2]; x2 = 0.3054
  excess molar volume: 1.31e-07 ± 1e-08 m3/mol
[2]; x2 = 0.3436
  excess molar volume: 1.38e-07 ± 1e-08 m3/mol
[2]; x2 = 0.3606
  excess molar volume: 1.42e-07 ± 1e-08 m3/mol
[2]; x2 = 0.3817
  excess molar volume: 1.46e-07 ± 1e-08 m3/mol
[2]; x2 = 0.4337
  excess molar volume: 1.48e-07 ± 1e-08 m3/mol
[2]; x2 = 0.4571
  excess molar volume: 1.49e-07 ± 1e-08 m3/mol
[2]; x2 = 0.4815
  excess molar volume: 1.49e-07 ± 1e-08 m3/mol
[2]; x2 = 0.519
  excess molar volume: 1.48e-07 ± 1e-08 m3/mol
[2]; x2 = 0.5798
  excess molar volume: 1.45e-07 ± 1e-08 m3/mol
[2]; x2 = 0.5931
  excess molar volume: 1.41e-07 ± 1e-08 m3/mol
[2]; x2 = 0.5936
  excess molar volume: 1.39e-07 ± 1e-08 m3/mol
[2]; x2 = 0.6015
  excess molar volume: 1.38e-07 ± 1e-08 m3/mol
[2]; x2 = 0.6087
  excess molar volume: 1.37e-07 ± 1e-08 m3/mol
[2]; x2 = 0.6204
  excess molar volume: 1.33e-07 ± 1e-08 m3/mol
[2]; x2 = 0.6319
  excess molar volume: 1.32e-07 ± 1e-08 m3/mol
[2]; x2 = 0.6419
  excess molar volume: 1.32e-07 ± 1e-08 m3/mol
[2]; x2 = 0.6744
  excess molar volume: 1.28e-07 ± 1e-08 m3/mol
[2]; x2 = 0.6903
  excess molar volume: 1.22e-07 ± 1e-08 m3/mol
[2]; x2 = 0.705
  excess molar volume: 1.2e-07 ± 1e-08 m3/mol
[2]; x2 = 0.7245
  excess molar volume: 1.15e-07 ± 1e-08 m3/mol
[2]; x2 = 0.7372
  excess molar volume: 1.15e-07 ± 1e-08 m3/mol
[2]; x2 = 0.7679
  excess molar volume: 1.07e-07 ± 1e-08 m3/mol
[2]; x2 = 0.7781
  excess molar volume: 9.8e-08 ± 1e-08 m3/mol
[2]; x2 = 0.7976
  excess molar volume: 9.2e-08 ± 1e-08 m3/mol
[2]; x2 = 0.8132
  excess molar volume: 8.3e-08 ± 1e-08 m3/mol
[2]; x2 = 0.8358
  excess molar volume: 7.3e-08 ± 1e-08 m3/mol
